# Source: patent US8269000B2, “Substituted pyrimidine and triazine compounds” (Gruenenthal GmbH, priority 2008, dated 2012)
# Biological target: T1, rat B1R (Rattus norvegicus, UniProt P97583)
# T1 construct: expressed in transfected cells; host or cells: CHO K1 cells
# T1 sequence (P97583 1-337): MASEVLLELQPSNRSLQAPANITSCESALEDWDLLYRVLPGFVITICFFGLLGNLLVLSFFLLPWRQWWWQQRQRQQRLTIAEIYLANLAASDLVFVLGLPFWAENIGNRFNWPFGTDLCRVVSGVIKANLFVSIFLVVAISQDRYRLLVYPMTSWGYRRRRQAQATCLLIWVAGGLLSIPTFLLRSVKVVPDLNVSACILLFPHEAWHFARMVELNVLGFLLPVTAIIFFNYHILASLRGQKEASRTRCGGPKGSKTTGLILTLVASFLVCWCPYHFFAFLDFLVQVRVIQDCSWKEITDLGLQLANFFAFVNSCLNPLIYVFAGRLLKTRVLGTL
# Assay: FLIPR Ca2+ functional study on bradykinin receptor 1 (rB1R CHO K1 cells)
# Type: cell-based
# Conditions: % inhibition rat B1R at 10 μM
# Description: The agonistic or antagonistic activity of substances can be quantified on the bradykinin receptor 1 (B1R) of the species human and rat using ectopically expressing cell lines (CHO K1 cells) and with the aid of a Ca^2+-sensitive dye (Fluo-4) using a fluorescent imaging plate reader (FLIPR). The indication in % activation is based on the Ca^2+ signal after addition of Lys-Des-Arg^9-bradykinin (0.5 nM) or Des-Arg^9-bradykinin (100 nM). Antagonists lead to suppression of the Ca^2+ influx after the addition of the agonist. % Inhibition compared with the maximum achievable inhibition is indicated.
# The agonistic or antagonistic activity of substances can be determined on the bradykinin receptor 1 (B1R) of the species human and rat using the following assay. According to this assay, the Ca^2+ influx through the channel is quantified with the aid of a Ca^2+-sensitive dye (Fluo-4 type, Molecular Probes Europe BV, Leiden, Netherlands) using a Fluorescent Imaging Plate Reader (FLIPR, Molecular Devices, Sunnyvale, USA).
# Chinese hamster ovary cells (CHO K1 cells) which have been stably transfected with the human B1R gene (hB1R cells) or with the B1R gene of the rat (rB1R cells) are used. For functional studies, the cells are plated out on black 96-well plates having a clear base (BD Biosciences, Heidelberg, Germany or Greiner, Frickenhausen, Germany) in a density of 20,000-35,000 cells/well. The cells are left overnight at 37° C. and with 5% CO2 in culture medium (hB1R cells: Nutrient Mixture Ham's F12, Gibco Invitrogen GmbH, Karlsruhe, Germany or DMEM, Sigma-Aldrich, Taufkirchen, Germany; rB1R cells: D-MEM/F12, Gibco Invitrogen GmbH, Karlsruhe, Germany), with 10 vol.% FBS (fetal bovine serum, Gibco Invitrogen GmbH, Karlsruhe, Germany or PAN Biotech GmbH, Aidenbach, Germany). On the following day, the cells are loaded for 60 minutes at 37° C. with 2.13 μM Fluo-4 (Molecular Probes Europe BV, Leiden, Netherlands) in HBSS buffer (Hank's buffered saline solution, Gibco Invitrogen GmbH, Karlsruhe, Germany) […] (Sigma-Aldrich, Taufkirchen, Germany) and 10 mM HEPES (Sigma-Aldrich, Taufkirchen, Germany). The plates are then washed twice with HBSS buffer, and HBSS buffer additionally containing 0.1% BSA (bovine serum albumin; Sigma-Aldrich, Taufkirchen, Germany), 5.6 mM glucose and 0.05% gelatin (Merck KGaA, Darmstadt, Germany) is added to the plates. After incubation for a further 20 minutes at room temperature, the plates are inserted into the FLIPR for Ca^2+ measurement. Alternatively, washing is carried out with buffer A (15 mM HEPES, 80 mM NaCl, 5 mM KCl, 1.2 mM CaCl2, 0.7 mM MgSO4, 2 g/l glucose, 2.5 mM probenecid) followed by loading with buffer A with added 2.5 μM Fluo-4 and 0.025% Pluronic F127 (Sigma-Aldrich, Taufkirchen, Germany). The cells are then washed twice with buffer A and incubated for 30 minutes at room temperature with buffer A additionally containing 0.05% BSA and 0.05% gelatin and are then inserted into the FLIPR for Ca^2+ measurement. The Ca^2+-dependent fluorescence is measured before and after the addition of substances (λex=488 nm, λem=540 nm). Quantification is carried out by measuring the highest fluorescence intensity (FC, fluorescence counts) over time.
# The FLIPR protocol consists of two substance additions. Test substances (10 μM) are first pipetted onto the cells and the Ca^2+ influx is compared with the control (hB1R: Lys-Des-Arg^9-bradykinin>=50 nM; rB1R: Des-Arg^9-bradykinin 10 μM). This gives the activation in %, based on the Ca^2+ signal after addition of Lys-Des-Arg^9-bradykinin (>=50 nM) or Des-Arg^9-bradykinin (10 μM). After 10-20 minutes' incubation, Lys-Des-Arg^9-bradykinin (hB1R) or Des-Arg^9-bradykinin (rB1R) is applied in the concentration of the EC80, and the influx of Ca^2+ is likewise determined. Antagonists lead to suppression of the Ca^2+ influx. The % inhibition compared with the maximum achievable inhibition is calculated. […]
row,% inh. (rat B1R) 10 μM [%],Structure (SMILES)
1,95,"COc1cc(C)c(S(=O)(=O)N2CCCCC2COc2nccc(N3CCC(c4cccs4)(N(C)C)CC3)n2)c(C)c1 (stereo not drawn) [G_CC-070, [1-[2-[[1-[(4-methoxy-2,6-dimethyl-phenyl)sulfonyl]-piperidin-2-yl]-methoxy]-pyrimidin-4-yl]-4-thiophen-2-yl-pipendin-4-yl]-dimethyl-amine]"

# Same assay, conditions: CHO-K1, % inhibition rat B1R at 10 μM, read-out: % inh. (rat B1R) 10 μM
row,Structure (SMILES),inhibition at 10 µM [%]
1,"COc1cc(C)c(S(=O)(=O)N(C)C(COc2nccc(N3CCC(OCCN4CCCC4)(c4cccnc4)CC3)n2)c2ccccc2)c(C)c1 (stereo not drawn) [G_CC-062, 4-methoxy-N,2,6-trimethyl-N-[1-phenyl-2-[[4-[4-(3-pyridyl)-4-(2-1-pyrrolidinylethoxy)-1-piperidinyl]-2-pyrimidinyl]oxy]ethyl]benzenesulfonamide]",78
2,"COc1cc(C)c(S(=O)(=O)N(C)C(COc2nccc(N3CCN(C(=O)c4cccnc4)CC3)n2)c2ccccc2)c(C)c1 (stereo not drawn) [G_CC-064, 4-methoxy-N,2,6-trimethyl-N-[2-[[4-[4-[oxo-(3-pyridyl)methyl]-1-piperazinyl]-2-pyrimidinyl]oxy]-1-phenylethyl]benzenesulfonamide]",55
3,"COc1cc(C)c(S(=O)(=O)N(C)C(COc2nccc(N3CC4CC3CN4Cc3ccc(F)cc3)n2)c2ccccc2)c(C)c1 (stereo not drawn) [G_CC-065, N-[2-[[4-[2-[(4-fluorophenyl)methyl]-2,5-diazabicyclo[2.2.1]heptan-5-yl]-2-pyrimidinyl]oxy]-1-phenylethyl]-4-methoxy-N,2,6-trimethylbenzenesulfonamide]",58
4,"COc1cc(C)c(S(=O)(=O)N2CCCCC2COc2nccc(N3CCC(O)(c4cccnc4)CC3)n2)c(C)c1 (stereo not drawn) [G_CC-067, 1-[2-[[1-(4-methoxy-2,6-dimethylphenyl)sulfonyl-2-piperidinyl]methoxy]-4-pyrimidinyl]-4-(3-pyridyl)-4-piperidinol]",104
5,"CCCCC1(N(C)C)CCN(c2ccnc(OCC3CCCCN3S(=O)(=O)c3c(C)cc(OC)cc3C)n2)CC1 (stereo not drawn) [G_CC-069, [4-butyl-1-[2-[[1-[(4-methoxy-2,6-dimethyl-phenyl)sulfonyl]-piperidin-2-yl]-methoxy]-pyrimidin-4-yl]-piperidin-4-yl]-dimethyl-amine]",102
6,"COc1cc(C)c(S(=O)(=O)N2CCCCC2COc2nccc(N(C)CCN3CCC(c4ccccc4)(N4CCCC4)CC3)n2)c(C)c1 (stereo not drawn) [G_CC-073, [2-[[1-[(4-methoxy-2,6-dimethyl-phenyl)sulfonyl]-piperidin-2-yl]-methoxy]-pyrimidin-4-yl]-methyl-[2-(4-phenyl-4-pyrrolidin-1-yl-piperidin-1-yl)-ethyl]-amine]",101
7,"COc1cc(C)c(S(=O)(=O)N2c3ccccc3C[C@H]2COc2nccc(N(C)CCCN3CCC(c4ccccc4)(N(C)C)CC3)n2)c(C)c1 [G_CC-076, 3-(4-dimethylamino-4-phenyl-piperidin-1-yl)-propyl-[2-[[(2S)-1-[(4-methoxy-2,6-dimethyl-phenyl)sulfonyl]-2,3-dihydro-1H-indol-2-yl]-methoxy]-pyrimidin-4-yl]-methyl-amine]",105
8,"COc1cc(C)c(S(=O)(=O)N2CC(Oc3nccc(N4CCN(CC5CCN(C)CC5)CC4)n3)C2)c(C)c1 [G_CC-077, 2-[1-[(4-methoxy-2,6-dimethyl-phenyl)sulfonyl]-azetidin-3-yl]oxy-4-[4-[(1-methyl-piperidin-4-yl)methyl]-piperazin-1-yl]-pyrimidine]",92
9,"COc1cc(C)c(S(=O)(=O)N2CCCCC2COc2nccc(N3CCC(Oc4ccccn4)CC3)n2)c(C)c1 (stereo not drawn) [G_CC-078, 2-[[1-[(4-methoxy-2,6-dimethyl-phenyl)sulfonyl]-piperidin-2-yl]-methoxy]-4-(4-pyridin-2-yloxy-piperidin-1-yl)-pyrimidine]",98
10,"COc1cc(C)c(S(=O)(=O)N2CCCCC2COc2nccc(N3CCC(CCCN4CCCC4)(c4cccnc4)CC3)n2)c(C)c1 (stereo not drawn) [G_CC-080, 2-[[1-[(4-methoxy-2,6-dimethyl-phenyl)sulfonyl]-piperidin-2-yl]-methoxy]-4-[4-pyridin-3-yl-4-(3-pyrrolidin-1-yl-propyl)-piperidin-1-yl]-pyrimidine]",103
11,"COc1cc(C)c(S(=O)(=O)N2CCCCC2COc2nccc(N3CCC(O)(c4ccccn4)CC3)n2)c(C)c1 (stereo not drawn) [G_CC-082, 1-[2-[[1-[(4-methoxy-2,6-dimethyl-phenyl)sulfonyl]-piperidin-2-yl]-methoxy]-pyrimidin-4-yl]-4-pyridin-2-yl-piperidin-4-ol]",73
12,"COc1cc(C)c(S(=O)(=O)N2CCC[C@H]2COc2nccc(N3CCC(O)(c4ccccn4)CC3)n2)c(C)c1 [G_CC-083, 1-[2-[[(2S)-1-[(4-methoxy-2,6-dimethyl-phenyl)sulfonyl]-pyrrolidin-2-yl]-methoxy]-pyrimidin-4-yl]-4-pyridin-2-yl-piperidin-4-ol]",62

# Further lines, results first:
row,inhibition at 10 µM [%],Structure (SMILES)
1,68,"COc1cc(C)c(S(=O)(=O)N(C)C(COc2nccc(N3CCC4(CCN(Cc5ccccc5)C4)C3)n2)c2ccccc2)c(C)c1 (stereo not drawn) [G_CC-068, N-[2-[[4-(3-benzyl-3,7-diazaspiro[4.4]nonan-7-yl)-2-pyrimidinyl]oxy]-1-phenylethyl]-4-methoxy-N,2,6-trimethylbenzenesulfonamide]"
2,102,"CCCCC1(N(C)C)CCN(CCN(C)c2ccnc(OCC3CCCCN3S(=O)(=O)c3c(C)cc(OC)cc3C)n2)CC1 (stereo not drawn) [G_CC-074, 2-(4-butyl-4-dimethylamino-piperidin-1-yl)-ethyl-[2-[[1-[(4-methoxy-2,6-dimethyl-phenyl)sulfonyl]-piperidin-2-yl]-methoxy]-pyrimidin-4-yl]-methyl-amine]"
3,104,"COc1cc(C)c(S(=O)(=O)N2CCC[C@H]2COc2nccc(N(C)CCCN3CCC(c4ccccc4)(N(C)C)CC3)n2)c(C)c1 [G_CC-075, 3-(4-dimethylamino-4-phenyl-piperidin-1-yl)-propyl-[2-[[(2S)-1-[(4-methoxy-2,6-dimethyl-phenyl)sulfonyl]-pyrrolidin-2-yl]-methoxy]-pyrimidin-4-yl]-methyl-amine]"
4,98,"COc1cc(C)c(S(=O)(=O)N2CCCCC2COc2nccc(N3CCC(Oc4cnccn4)CC3)n2)c(C)c1 (stereo not drawn) [G_CC-079, 2-[[1-[(4-methoxy-2,6-dimethyl-phenyl)sulfonyl]-piperidin-2-yl]-methoxy]-4-(4-pyrazin-2-yloxy-piperidin-1-yl)-pyrimidine]"
5,88,"COc1cc(C)c(S(=O)(=O)N2CCCCC2COc2nccc(N3CCCC3Cc3ccccn3)n2)c(C)c1 (stereo not drawn) [G_CC-081, 2-[[1-[(4-methoxy-2,6-dimethyl-phenyl)sulfonyl]-piperidin-2-yl]-methoxy]-4-[2-(pyridin-2-yl-methyl)-pyrrolidin-1-yl]-pyrimidine]"
